Measured values: patent US12134663B2, “Cationic peptides for activating Lck” (Interk Peptide Therapeutics Limited, priority 2018, dated 2024)
Where no end group is shown, it is not given here. [ ]: non-standard residue; d: D form.

B1: CD40L: CD40L (5 ug/mL) added to immature monocyte derived DC cultures (protein, UniProt P29965 113-261, looked up)
CD40 ligand, soluble form: MQKGDQNPQIAAHVISEASSKTTSVLQWAEKGYYTMSNNLVTLENGKQLTVKRQGLYYIYAQVTFCSNREASSQAPFIASLCLKSPGRFERILLRAANTHSSAKPCGQQSIHLGGVFELQPGASVFVNVTDPSQVSHGTGFTSFGLLKL

Experiments:
[1] = system: isolated human CD4+ T cells; experiment: IFN-γ secretion in stimulated CD4+ T cell assay; type: cell-based; conditions: anti-CD3 anti-CD28 Dynabeads, 24 hours
Protocol: (§1) The ability of Lck activating polypeptides to alter IFN-γ secretion by isolated human CD4+ T cells in a stimulated CD4+ T cell assay was also examined. In brief, Isolated CD4+ T cells were stimulated with anti-CD3 anti-CD28 Dynabeads™ and cultured together with the Lck activating polypeptides RRRRRRRRR (SEQ ID NO: 6, IK00900) and RSKAKNPLY-RRRRRRRRR (SEQ ID NO: 24, IK14800) for 24 hours after which supernatants were assessed for IFN-γ by ELISA.
as §1, with “polypeptides comprising D amino acids” for “polypeptides”, “polypeptide” for “polypeptides RRRRRRRRR (SEQ ID NO: 6, IK00900) and”, “IK14800), or the Lck activating polypeptide RSKAKNPLY-RRRRRRRRR (SEQ ID NO: 24) comprising only D amino acids (SEQ ID NO: 129, IKD14800),” for “IK14800)”

isolated CD8+ T cells = experiment: IL-18Ra expression on stimulated CD8+ T cells; type: cell-based, human; conditions: 24 hours; data not shown
Protocol: The effect of Lck activating polypeptides on IL-18Ra expression on CD4+ and CD8+ T cells in stimulated CD4+ and CD8+ T cell assays was examined. In brief, isolated CD8+ T cells were stimulated with anti-CD3 anti-CD28 Dynabeads™ and cultured together with the Lck activating polypeptides RSKAKNPLY-RRRRRRRRR (SEQ ID NO: 24), and RSKAKNPLY-RRRRRRRRR (SEQ ID NO: 24) comprising only D amino acids (SEQ ID NO: 129), for 24 hours after which cells were assessed for IL-18Ra expression by flow cytometry.

[2] = system: isolated human CD8+ T cells; experiment: IFN-γ secretion in stimulated CD8+ T cell assay; type: cell-based; conditions: anti-CD3 anti-CD28 Dynabeads, 24 hours
Protocol: as §1, with “CD8+” for “CD4+”, “was” for “was also”
In brief, Isolated CD8+ T cells were stimulated with anti-CD3 anti-CD28 Dynabeads™ and cultured together with the Lck activating polypeptide RSKAKNPLY-RRRRRRRRR (SEQ ID NO: 24), comprising only D amino acids (SEQ ID NO: 129, IKD14800), for 24 hours after which supernatants were assessed for IFN-γ by ELISA.

exhausted CD4+ T cells = experiment: CD4+ T cell exhaustion assay, CD25 on restimulation; type: cell-based, murine; conditions: 72 hours; relative to IK14000 control peptide
From the text: A CD4+ T cell exhaustion assay using a murine model (Tg4 Ly5.1 (MBP-Tracker Mouse), B10PIxC57BL/6) was used whereby CD4+ T cell receptor transgenic T cells are stimulated with wild-type myelin basic protein peptide (WT-MBP) to produce fully responsive effector T cells or altered peptide ligand peptide MBP (APL-MBP) to produce exhausted T cells. These are rested in IL-2 and then a secondary stimulation with APC, a dose of APL-MBP peptide along with any treatments under investigation.
Spleens from the aforementioned mice were removed and processed to generate a single cell suspension of splenocytes. MBP-Tracker splenocytes were resuspended at 3×10^6/mL and stimulated with WT-MBP (control, non-exhausted cells) or APL-MBP (to generate exhausted cells). Cells were stimulated for 72 hr. Following stimulation, T cells were purified by Ficoll density gradient, and subsequently re-plated at 2×10^6/mL in 20 U/mL IL-2 for four days. […] Following 48-72b hours of culture the cells were assessed by flow cytometry for markers of IL-2Ra and proliferation (CD25 and Ki-67, respectively) and supernatant was collected for assessment of cytokine production (IFN-γ and TNF-α) by ELISA or multiplexed immunoassays. […]

[3] = system: anti-CD3 stimulated PBMCs; experiment: IL-12p70 secretion in anti-CD3 stimulated PBMCs; type: cell-based, human; conditions: 24 hours
Protocol: The ability of Lck activating polypeptides to alter IL-12 (IL-12p70) secretion was examined further. In brief, anti-CD3 stimulated PBMCs were cultured together with the Lck activating polypeptides RVKVKVVVV-RRRRRRRRR (SEQ ID NO: 58, “IK15800”), RSKAKNPLY-RRRRRRRRR (SEQ ID NO: 24, “IK14800”), and RVKVKVVVV-RRRRRRRRR (SEQ ID NO: 58) and RSKAKNPLY-RRRRRRRRR (SEQ ID NO: 24) comprising only D amino acids (SEQ ID NO: 111, “IKD15800”, and SEQ ID NO: 129, “IKD14800”, respectively), in the presence and absence of anti-CD40L blocking antibody for 24 hours. Supernatants were assessed for IL-12p70 levels by ELISA.
The ability of Lck activating polypeptides to alter IL-12 (IL-12p70) secretion was examined relative to no peptide. In brief, PBMCs were cultured together with anti-CD3 (1 ug/ml) and the Lck activating polypeptide RSKAKNPLY-RRRRRRRRR (SEQ ID NO: 24) or RVKVKVVVV-RRRRRRRRR (SEQ ID NO: 58) for 24 or 72 hours. Supernatants were assessed for IL-12p70 levels by ELISA.

Lck = molecular target: T1, Lck (Homo sapiens, UniProt P06239); experiment: In vitro Lck activation kinase study (Eurofins); type: biochemical; conditions: peptide 1 μM; relative to control
T1 construct: purchased Eurofins Pharma Discovery Services UK Limited
Protocol: The ability of polypeptides of the present invention to activate Lck was examined in vitro. Lck is member of the Src family of tyrosine kinases. […] All results in are percentage Lck activity relative to control (100%).
Test polypeptides were assessed at a concentration of 1.0 μM.
The ability of polypeptides of the present invention to activate Src family kinases was examined in vitro. Kinase activation studies utilising peptides were carried out as described in Example 1, and all kinase activity values are shown as percentage relative to control.
The ability of polypeptides comprising both lysine and arginine to activate Lck in vitro was examined. Lck activation studies utilising peptides were carried out as described in Example 1, and all kinase activity values are shown as percentage relative to control.

isolated CD4+ T cells = experiment: IL-18Ra expression on stimulated CD4+ T cells; type: cell-based, human; conditions: 24 hours; data not shown
Protocol: Isolated CD4+ T cells were stimulated with anti-CD3 anti-CD28 Dynabeads™ and cultured together with the Lck activating polypeptides RSKAKNPLY-RRRRRRRRR (SEQ ID NO: 24), and RSKAKNPLY-RRRRRRRRR (SEQ ID NO: 24) comprising only D amino acids (SEQ ID NO: 129), for 24 hours after which cells were assessed for IL-18Ra expression by flow cytometry.

CD3neg CD56+ NK cells = CD3neg CD56+ NK cells within stimulated PBMCs (Ki67, CD25, CD215, CD360); type: cell-based, human; conditions: data not shown
Protocol: The ability of Lck activating polypeptides to induce proliferation of isolated human CD3^neg CD56^+ NK cells within PBMCs was examined. In brief, anti-CD3 stimulated PBMCs were cultured together with the Lck activating polypeptide rvkvkvvvv-rrrrrrrrr (SEQ ID NO: 111, IKD15800) for 72 hours after which CD3^neg CD56^+ NK cells were assessed for Ki67 expression by flow cytometry. Ki67 is a proliferation marker used to determine the growth fraction of a given cell population, in this case CD3^neg CD56^+ NK cells.

isolated T cells (CD3+) = experiment: IL-2 secretion from isolated T cells (CD3+); type: cell-based, human; conditions: anti-CD3 anti-CD28 Dynabeads, 0-1.25 μM, 72 hours
Protocol: In brief, isolated T cells (CD3+) were stimulated with anti-CD3 anti-CD28 Dynabeads™ and cultured together the Lck activating polypeptides RSKAKNPLY-RRRRRRRRR (SEQ ID NO: 24, “IK14800”), RVKVKVVVV-RRRRRRRRR (SEQ ID NO: 58, “IK15800”), and RVKVKVVVV-RRRRRRRRR ([…]) comprising only D amino acids (i.e. rvkvkvvvv-rrrrrrrrr; […], “IKD15800”), over a 5-concentration range plus vehicle control (0-1.25 μM) for 72 hours after which supernatants were collected and assessed for IL-2 by ELISA.

CD4+ T cells = experiment: pSTAT4 expression in stimulated T cell assay; type: cell-based, human; conditions: 0-1.25 μM, 72 hours; data not shown
From the text: The effect of Lck activating polypeptides on intracellular pSTAT4 expression in CD4+ and CD8+ T cells in a stimulated T cell assay was examined. In brief, isolated T cells (CD3+) were stimulated with anti-CD3 anti-CD28 Dynabeads™ and cultured together with the Lck activating polypeptides RSKAKNPLY-RRRRRRRRR (SEQ ID NO: 24), RVKVKVVVV-RRRRRRRRR (SEQ ID NO: 58) and RVKVKVVVV-RRRRRRRRR (SEQ ID NO: 58) comprising only D amino acids (SEQ ID NO: 111), over a 5-concentration range plus vehicle control (0-1.25 μM) for 72 hours after which […] assessed for p-STAT4 expression by flow cytometry.

[4] = system: immature monocyte derived DCs (iMoDCs); experiment: Dendritic cell phenotype (CD14 expression) in immature DC cultures; type: cell-based; conditions: CD40L 5 ug/mL and anti-CD3, 72 hours; data not shown
Protocol: The effect of CD40L on dendritic cell phenotype (CD14 expression) in isolated immature DC cell cultures was examined. In brief, immature monocyte derived DCs (iMoDCs) were derived from isolated CD14+ monocytes cultured for 7 days in MoDC differentiation media. iMoDCs were cultured for 72 hours in the presence of CD40L (5 ug/mL) and anti-CD3 (1 ug/mL). After 72 hours, cells were assessed for CD14 and CD11c expression by flow cytometry to determine DC cell phenotype.
In brief, immature monocyte derived DCs (iMoDCs) were derived from isolated CD14+ monocytes cultured for 7 days in Mo-DC differentiation media. iMoDCs were cultured for 72 hrs in the presence of test peptides over a 5-point concentration curve plus vehicle (0-1.25 μM) and anti-CD3 (1 μg/mL). After 72 hrs, cells were assessed for CD14 and CD11c expression by flow cytometry to determine DC cell phenotype. Data presented indicates the mean respective CD14 positive or negative cell populations (%) within CD11c positive population in response to peptide treatment, +/− SEM, n=4. Data were analysed by RM two-way ANOVA with Dunnett's post-test comparing each peptide concentration with vehicle, *p<0.05, **p<0.01, ***p<0.001.

T1 sequence (P06239 whole entry): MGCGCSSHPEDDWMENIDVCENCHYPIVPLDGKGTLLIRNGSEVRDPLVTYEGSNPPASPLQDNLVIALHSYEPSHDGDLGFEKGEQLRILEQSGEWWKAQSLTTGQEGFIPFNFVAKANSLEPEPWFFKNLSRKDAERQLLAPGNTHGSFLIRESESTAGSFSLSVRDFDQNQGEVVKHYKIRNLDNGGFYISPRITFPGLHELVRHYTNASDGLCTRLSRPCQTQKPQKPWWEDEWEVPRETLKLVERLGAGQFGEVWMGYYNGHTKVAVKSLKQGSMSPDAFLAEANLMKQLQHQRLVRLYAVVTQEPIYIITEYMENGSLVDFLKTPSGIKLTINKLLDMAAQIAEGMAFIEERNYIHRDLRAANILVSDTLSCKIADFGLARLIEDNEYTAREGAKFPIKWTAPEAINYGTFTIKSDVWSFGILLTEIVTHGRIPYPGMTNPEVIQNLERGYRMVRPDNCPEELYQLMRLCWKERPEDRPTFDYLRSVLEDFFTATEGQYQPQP

| Molecule | IFN-γ secretion relative to no peptide control [1] | IL-18Ra expression on CD8+ T cells (isolated CD8+ T cells) | IFN-γ secretion relative to no peptide control [2] | expression of CD25 in exhausted CD4+ T cells upon restimulation (exhausted CD4+ T cells) | IL-12 (IL-12p70) secretion relative to cultures with anti-CD40L blocking antibody [3] | increase in Lck activity (Lck) [%] | IL-18Ra expression on CD4+ T cells (isolated CD4+ T cells) | proliferating population of CD3neg CD56+ NK cells (Ki67) (CD3neg CD56+ NK cells; 72 hours) | population of CD3neg CD56+ NK cells that were CD25 positive (CD3neg CD56+ NK cells) | population of CD3neg CD56+ NK cells that were CD215 positive (CD3neg CD56+ NK cells) | population of CD3neg CD56+ NK cells that were CD360 positive (CD3neg CD56+ NK cells) | IL-2 secretion relative to control (isolated T cells (CD3+)) | p-STAT4 expression on CD4+ T cells (CD4+ T cells) | proportion of CD14 negative CD11c+ dendritic cells [4] |
| --- | --- | --- | --- | --- | --- | --- | --- | --- | --- | --- | --- | --- | --- | --- |
| rskaknplyrrrrrrrrr ([dR][dS][dK][dA][dK][dN][dP][dL][dY][dR][dR][dR][dR][dR][dR][dR][dR][dR]) [IKD14800] | induces IFN-γ secretion | increase IL-18Ra expression | induces IFN-γ secretion | increased | induce IL-12 secretion | 490 | increase IL-18Ra expression |  |  |  |  |  |  |  |
| rvkvkvvvv-rrrrrrrrr ([dR][dV][dK][dV][dK][dV][dV][dV][dV][dR][dR][dR][dR][dR][dR][dR][dR][dR]) [IKD15800] |  |  |  |  | induce IL-12 secretion |  |  | increased the proliferating population | increased the population | increased the population | increased the population | induce IL-2 secretion | increase p-STAT4 expression |  |
| B1 |  |  |  |  |  |  |  |  |  |  |  |  |  | increased the proportion of CD14 negative CD11c+ dendritic cells |
